Measured values: ChEMBL document CHEMBL1909046, “DrugMatrix in vitro pharmacology data”

Legend:
[1] = molecular target: T1, Type-2 angiotensin II receptor (Homo sapiens, UniProt P50052); format: cell-based; conditions: cho-k1; further: in other assays of this panel Not Active means under 50% inhibition at 10 µM
T1 sequence (P50052 whole entry): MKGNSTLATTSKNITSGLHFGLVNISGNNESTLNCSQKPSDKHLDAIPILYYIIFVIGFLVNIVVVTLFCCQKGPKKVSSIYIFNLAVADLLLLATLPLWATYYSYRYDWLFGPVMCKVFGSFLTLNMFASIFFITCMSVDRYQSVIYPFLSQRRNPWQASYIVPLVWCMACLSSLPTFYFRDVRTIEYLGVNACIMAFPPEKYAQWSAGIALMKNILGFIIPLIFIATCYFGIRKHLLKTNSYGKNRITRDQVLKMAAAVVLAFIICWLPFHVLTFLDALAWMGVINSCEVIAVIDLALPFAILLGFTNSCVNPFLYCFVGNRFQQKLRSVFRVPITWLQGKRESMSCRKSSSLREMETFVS

[2] = molecular target: T2, C-X-C chemokine receptor type 2 (Homo sapiens, UniProt P25025); format: cell membranes, Membrane; conditions: cho-k1; further: in other assays of this panel Not Active means under 50% inhibition at 10 µM
T2 sequence (P25025 whole entry): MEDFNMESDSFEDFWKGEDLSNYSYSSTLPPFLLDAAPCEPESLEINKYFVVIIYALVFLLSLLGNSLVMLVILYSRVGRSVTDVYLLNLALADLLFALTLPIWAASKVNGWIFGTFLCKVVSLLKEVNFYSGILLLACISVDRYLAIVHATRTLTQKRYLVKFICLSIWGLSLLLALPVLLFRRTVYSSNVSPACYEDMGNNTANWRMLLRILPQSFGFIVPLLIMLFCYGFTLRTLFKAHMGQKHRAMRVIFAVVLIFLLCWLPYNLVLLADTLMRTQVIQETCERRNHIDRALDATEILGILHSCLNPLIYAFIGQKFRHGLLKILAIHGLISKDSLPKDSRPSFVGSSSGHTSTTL

D(1A) dopamine receptor = D(1A) dopamine receptor (Homo sapiens, UniProt P21728); experiment: DRUGMATRIX: Dopamine D1 radioligand binding (ligand: [3H] SCH-23390); format: cell membranes, CHO, Membrane; conditions: Not Active = under 50% inhibition at 10 µM
Sequence of D(1A) dopamine receptor (P21728 whole entry): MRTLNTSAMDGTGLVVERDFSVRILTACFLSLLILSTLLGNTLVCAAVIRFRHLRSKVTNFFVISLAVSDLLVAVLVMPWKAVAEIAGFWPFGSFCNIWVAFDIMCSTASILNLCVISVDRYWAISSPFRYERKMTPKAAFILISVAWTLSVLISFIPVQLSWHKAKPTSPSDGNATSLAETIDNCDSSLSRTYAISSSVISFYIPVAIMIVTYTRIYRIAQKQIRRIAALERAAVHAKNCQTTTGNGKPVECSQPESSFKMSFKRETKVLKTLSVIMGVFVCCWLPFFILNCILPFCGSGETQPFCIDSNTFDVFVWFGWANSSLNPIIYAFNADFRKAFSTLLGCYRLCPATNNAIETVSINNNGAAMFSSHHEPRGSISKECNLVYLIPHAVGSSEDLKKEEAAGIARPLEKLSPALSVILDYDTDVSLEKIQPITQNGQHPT

[3] = molecular target: Kappa-type opioid receptor (Homo sapiens, UniProt P41145); experiment: DRUGMATRIX: Opiate kappa (OP2, KOP) radioligand binding (ligand: [3H] Diprenorphine); format: cell membranes, HEK293, Membrane; conditions: hek293; Not Active = under 50% inhibition at 10 µM
Sequence of Kappa-type opioid receptor (P41145 whole entry): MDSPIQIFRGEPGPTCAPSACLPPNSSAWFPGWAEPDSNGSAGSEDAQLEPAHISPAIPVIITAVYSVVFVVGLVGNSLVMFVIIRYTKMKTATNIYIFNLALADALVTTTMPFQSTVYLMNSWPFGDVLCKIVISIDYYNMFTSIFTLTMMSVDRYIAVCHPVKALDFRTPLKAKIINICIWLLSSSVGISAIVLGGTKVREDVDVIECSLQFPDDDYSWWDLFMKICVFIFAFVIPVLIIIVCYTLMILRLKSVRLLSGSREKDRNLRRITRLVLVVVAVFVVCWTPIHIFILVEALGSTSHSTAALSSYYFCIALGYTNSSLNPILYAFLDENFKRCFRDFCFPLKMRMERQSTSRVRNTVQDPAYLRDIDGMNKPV

[4] = molecular target: Mitogen-activated protein kinase 14 (Homo sapiens, UniProt Q16539); parameters: species or system Escherichia coli;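 further: inhibition of p38alpha enzyme activity in a biochemical kinase assay, with myelin basic protein serving as substrate; in other assays of this panel Not Active means under 50% inhibition at 10 µM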
Sequence of Mitogen-activated protein kinase 14 (Q16539 whole entry): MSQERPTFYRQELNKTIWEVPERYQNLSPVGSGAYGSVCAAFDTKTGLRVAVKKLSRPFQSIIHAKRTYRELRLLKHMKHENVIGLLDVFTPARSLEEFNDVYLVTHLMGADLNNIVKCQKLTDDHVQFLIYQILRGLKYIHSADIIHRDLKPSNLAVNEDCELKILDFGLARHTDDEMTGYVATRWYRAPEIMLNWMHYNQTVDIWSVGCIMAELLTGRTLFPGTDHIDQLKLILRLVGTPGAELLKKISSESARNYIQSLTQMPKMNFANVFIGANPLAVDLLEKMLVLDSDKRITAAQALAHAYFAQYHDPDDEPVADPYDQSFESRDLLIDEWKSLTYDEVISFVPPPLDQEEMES

Melanocortin receptor 4 = Melanocortin receptor 4 (Homo sapiens, UniProt P32245); format: cell membranes, HEK293, Membrane; conditions: hek293; further: in other assays of this panel Not Active means under 50% inhibition at 10 µM
Sequence of Melanocortin receptor 4 (P32245 whole entry): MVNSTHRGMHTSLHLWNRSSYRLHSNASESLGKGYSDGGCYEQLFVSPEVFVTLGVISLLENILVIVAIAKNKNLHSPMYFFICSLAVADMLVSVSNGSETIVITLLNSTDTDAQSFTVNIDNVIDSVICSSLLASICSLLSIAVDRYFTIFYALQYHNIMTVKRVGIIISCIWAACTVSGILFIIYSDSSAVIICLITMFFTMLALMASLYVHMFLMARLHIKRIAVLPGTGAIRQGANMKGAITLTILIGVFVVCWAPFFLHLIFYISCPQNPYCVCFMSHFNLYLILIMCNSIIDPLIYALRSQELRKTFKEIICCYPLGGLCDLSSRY

[5] = molecular target: T3, Angiotensin-converting enzyme (Oryctolagus cuniculus, UniProt P12822); format: tissue-based, Lung
T3 sequence (P12822 whole entry): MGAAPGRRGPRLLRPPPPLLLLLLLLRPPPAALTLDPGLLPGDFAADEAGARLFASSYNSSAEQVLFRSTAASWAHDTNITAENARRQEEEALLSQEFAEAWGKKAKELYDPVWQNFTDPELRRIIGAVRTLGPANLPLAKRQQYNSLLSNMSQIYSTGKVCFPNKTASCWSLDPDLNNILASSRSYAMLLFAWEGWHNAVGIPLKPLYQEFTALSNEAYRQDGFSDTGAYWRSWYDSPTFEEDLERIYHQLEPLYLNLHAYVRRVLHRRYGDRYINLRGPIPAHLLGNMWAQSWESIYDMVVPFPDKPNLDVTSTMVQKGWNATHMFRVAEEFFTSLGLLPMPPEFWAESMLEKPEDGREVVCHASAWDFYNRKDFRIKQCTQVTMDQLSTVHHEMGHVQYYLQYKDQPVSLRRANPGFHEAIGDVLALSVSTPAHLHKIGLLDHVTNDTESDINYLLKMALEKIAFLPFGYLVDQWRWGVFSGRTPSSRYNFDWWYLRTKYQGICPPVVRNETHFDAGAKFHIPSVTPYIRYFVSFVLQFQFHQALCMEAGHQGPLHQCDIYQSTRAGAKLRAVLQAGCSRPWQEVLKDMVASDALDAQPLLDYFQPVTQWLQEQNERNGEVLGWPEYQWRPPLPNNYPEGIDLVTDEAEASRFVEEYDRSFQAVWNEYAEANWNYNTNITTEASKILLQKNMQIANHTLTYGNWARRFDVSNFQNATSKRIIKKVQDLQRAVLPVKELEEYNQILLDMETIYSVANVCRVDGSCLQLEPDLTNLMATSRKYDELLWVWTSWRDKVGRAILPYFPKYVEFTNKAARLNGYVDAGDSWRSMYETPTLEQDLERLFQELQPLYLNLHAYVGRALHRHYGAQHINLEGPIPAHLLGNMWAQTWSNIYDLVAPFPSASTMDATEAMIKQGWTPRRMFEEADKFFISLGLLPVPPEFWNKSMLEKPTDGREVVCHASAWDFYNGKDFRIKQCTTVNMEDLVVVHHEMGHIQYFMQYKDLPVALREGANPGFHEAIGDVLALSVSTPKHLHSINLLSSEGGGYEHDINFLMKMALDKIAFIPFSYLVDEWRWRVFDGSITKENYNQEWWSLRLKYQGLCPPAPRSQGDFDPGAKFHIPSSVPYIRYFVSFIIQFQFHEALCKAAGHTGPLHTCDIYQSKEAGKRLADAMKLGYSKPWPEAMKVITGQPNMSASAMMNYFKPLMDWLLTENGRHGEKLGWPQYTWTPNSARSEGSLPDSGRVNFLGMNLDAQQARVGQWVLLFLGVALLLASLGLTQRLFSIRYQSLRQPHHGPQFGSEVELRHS

Estrogen receptor = molecular target: T4, Estrogen receptor (Homo sapiens, UniProt P03372); conditions: sf9; further: in other assays of this panel Not Active means under 50% inhibition at 10 µM
T4 sequence (P03372 whole entry): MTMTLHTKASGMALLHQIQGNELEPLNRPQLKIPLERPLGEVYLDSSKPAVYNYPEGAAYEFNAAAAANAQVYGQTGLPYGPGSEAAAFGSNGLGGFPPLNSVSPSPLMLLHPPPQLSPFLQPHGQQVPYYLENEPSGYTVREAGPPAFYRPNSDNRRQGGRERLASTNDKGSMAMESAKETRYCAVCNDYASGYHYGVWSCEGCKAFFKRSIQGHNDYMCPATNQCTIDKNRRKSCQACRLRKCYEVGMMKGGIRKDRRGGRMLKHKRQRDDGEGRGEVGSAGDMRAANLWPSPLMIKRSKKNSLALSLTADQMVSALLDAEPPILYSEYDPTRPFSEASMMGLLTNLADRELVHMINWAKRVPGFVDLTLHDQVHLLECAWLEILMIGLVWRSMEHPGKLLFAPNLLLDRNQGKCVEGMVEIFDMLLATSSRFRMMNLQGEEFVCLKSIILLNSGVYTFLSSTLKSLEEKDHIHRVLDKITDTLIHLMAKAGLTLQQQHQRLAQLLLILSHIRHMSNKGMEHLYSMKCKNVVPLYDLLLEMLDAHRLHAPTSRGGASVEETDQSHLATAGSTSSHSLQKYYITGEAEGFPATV

Row | Compound | IC50 [1] | IC50 [2] | IC50 (D(1A) dopamine receptor; cho) | IC50 [3] | IC50 [4] | IC50 (Melanocortin receptor 4) | IC50 [5] | IC50 (Estrogen receptor) | Ki [1] | Ki [2] | Ki (D(1A) dopamine receptor; cho) | Ki [4] | Ki (Melanocortin receptor 4) | Ki [5] | Ki (Estrogen receptor) | IC50 (D(1A) dopamine receptor; read-out: IC50) [nM] | Ki (D(1A) dopamine receptor; read-out: Ki) [nM] | IC50 ([4]; read-out: IC50) [nM]
1 | CC(C)CN(C[C@@H](O)[C@H](Cc1ccccc1)NC(=O)O[C@H]1CCOC1)S(=O)(=O)c1ccc(N)cc1 | Not Active | Not Active | Not Active | Not Active | Not Active | Not Active | Not Active | Not Active | – | – | – | – | – | – | – | – | – | –
2 | c1ccc(Nc2ccc(Nc3ccccc3)cc2)cc1 | Not Active | Not Active | Not Active | Not Active | Not Active | Not Active | Not Active | Not Active | – | – | – | – | – | – | – | – | – | –
3 | NC(=O)N1c2ccccc2CCc2ccccc21 | Not Active | Not Active | Not Active | Not Active | Not Active | Not Active | Not Active | Not Active | – | – | – | – | – | – | – | – | – | –
4 | Cc1onc(O)c1CC(N)C(=O)O (racemic) [(R,S)-AMPA] | Not Active | Not Active | Not Active | Not Active | Not Active | Not Active | Not Active | Not Active | – | – | – | – | – | – | – | – | – | –
5 | Cc1ccc2cc3c(ccc4ccccc43)c3c2c1CC3 [3-METHYLCHOLANTHRENE] | Not Active | Not Active | Not Active | – | Not Active | Not Active | Not Active | Not Active | – | – | – | – | – | – | – | – | – | –
6 | CC[C@@]1(O)C[C@H](O[C@H]2C[C@H](N(C)C)[C@H](O[C@H]3C[C@H](O)[C@H](O[C@H]4CCC(=O)[C@H](C)O4)[C@H](C)O3)[C@H](C)O2)c2c(cc3c(c2O)C(=O)c2c(O)cccc2C3=O)[C@H]1C(=O)OC [ACLARUBICIN] | Not Active | Not Active | Not Active | Not Active | Not Active | Not Active | Not Active | Not Active | – | – | – | – | – | – | – | – | – | –
7 | Nc1nc2c(ncn2COCCO)c(=O)[nH]1 [ACYCLOVIR] | Not Active | Not Active | Not Active | Not Active | Not Active | Not Active | Not Active | Not Active | – | – | – | – | – | – | – | – | – | –
8 | Cc1c(C)c2c(c(C)c1O)CC[C@@](C)(CCC[C@H](C)CCC[C@H](C)CCCC(C)C)O2 [ALPHA-TOCOPHEROL] | Not Active | Not Active | Not Active | Not Active | Not Active | Not Active | Not Active | Not Active | – | – | – | – | – | – | – | – | – | –
9 | Cc1ccc(/N=C/N(C)/C=N/c2ccc(C)cc2C)c(C)c1 [AMITRAZ] | Not Active | Not Active | Not Active | – | Not Active | Not Active | Not Active | Not Active | – | – | – | – | – | – | – | – | – | –
10 | COc1ccc(C[C@H]2NC[C@H](O)[C@H]2OC(C)=O)cc1 [ANISOMYCIN] | Not Active | Not Active | Not Active | – | Not Active | Not Active | Not Active | Not Active | Not Active | Not Active | Not Active | Not Active | Not Active | Not Active | Not Active | – | – | –
11 | O=C(O)CCCc1ccc(N(CCCl)CCCl)cc1 [CHLORAMBUCIL] | Not Active | Not Active | Not Active | – | Not Active | Not Active | Not Active | Not Active | – | – | – | – | – | – | – | – | – | –
12 | CC1=C2C(=CO[C@H](C)[C@H]2C)C(O)=C(C(=O)O)C1=O [CITRININ] | Not Active | Not Active | Not Active | – | Not Active | Not Active | Not Active | Not Active | – | – | – | – | – | – | – | – | – | –
13 | CCCN1C[C@H](CSC)C[C@@H]2c3cccc4[nH]cc(c34)C[C@H]21 [PERGOLIDE] | Not Active | Not Active | – | Not Active | Not Active | Not Active | Not Active | Not Active | – | – | – | – | – | – | – | – | – | –
14 | CNNCc1ccc(C(=O)NC(C)C)cc1 [PROCARBAZINE] | Not Active | Not Active | Not Active | Not Active | Not Active | Not Active | Not Active | – | – | – | – | – | – | – | – | – | – | –
15 | CN(C)CCCN1c2ccccc2Sc2ccccc21 [PROMAZINE] | Not Active | Not Active | – | Not Active | Not Active | Not Active | Not Active | – | – | – | – | – | – | – | – | 2460 | 1230 | –
16 | CADMIUM ACETATE | Not Active | Not Active | Not Active | – | Not Active | Not Active | Not Active | Not Active | Not Active | Not Active | Not Active | Not Active | Not Active | Not Active | Not Active | – | – | –
17 | LEAD (II) ACETATE | Not Active | Not Active | Not Active | – | Not Active | Not Active | Not Active | Not Active | Not Active | Not Active | Not Active | Not Active | Not Active | Not Active | Not Active | – | – | –
18 | LIPOPOLYSACCHARIDE E. COLI O55:B5 | Not Active | Not Active | Not Active | – | – | Not Active | Not Active | Not Active | Not Active | Not Active | Not Active | – | Not Active | Not Active | Not Active | – | – | 60.6
